Literature values in publication PMC2552397 (Journal of medicinal chemistry, 2008).

Tests used:
[1] = target: T1, GGPPS (Homo sapiens, UniProt O95749); conditions: in words
T1 sequence (O95749 1-300): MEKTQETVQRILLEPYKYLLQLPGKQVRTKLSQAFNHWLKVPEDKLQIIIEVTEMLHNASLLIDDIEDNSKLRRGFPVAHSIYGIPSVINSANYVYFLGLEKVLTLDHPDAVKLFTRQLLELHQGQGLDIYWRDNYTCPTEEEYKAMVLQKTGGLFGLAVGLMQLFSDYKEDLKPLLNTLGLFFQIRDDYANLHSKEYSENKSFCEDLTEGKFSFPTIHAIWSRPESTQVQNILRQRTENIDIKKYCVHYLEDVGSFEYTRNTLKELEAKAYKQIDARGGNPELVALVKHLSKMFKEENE

[2] = system: K562 tumor cell line; conditions: in words

Compound	activity against GGPPS [1]	activity against a K562 tumor cell line [2]
CCCCCCCCCC(O)(P(=O)(O)O)P(=O)(O)O [compound 4]	quite potent activity	–
CC(C)=CCC/C(C)=C/CC(C/C=C(\C)CCC=C(C)C)(P(=O)(O)O)P(=O)(O)O [compound 5, digeranyl methylene bisphosphonate]	potent activity	potent activity
